Test results taken from patent publication US7094909B2, “HIV protease inhibitors, compositions containing the same, their pharmaceutical uses and materials for their synthesis” (priority 2001, dated 2006).

Biological target: T1, HIV-1 protease (Q7S mutant form) (Human immunodeficiency virus type 1 group M subtype B, UniProt P04585, Q495S)
T1 construct: made in house
Assay: HIV-1 Protease RET assay
Format: biochemical
Procedure: Ki's for the inhibitors of HIV-1 protease were determined using a resonance energy transfer (RET) assay. […] This enzyme is first partially purified as inclusion bodies from cell lysate. It is then solublized in 8M urea and passed through a Q-Sepharose column (Pharmacia) for further purification. To refold this protein, samples containing Q7S is dialyzed into 50 mM sodium phosphate pH 7.0, 50 mM NaCl, 10 mM DTT, and 10% glycerol.
The commercially available peptide substrate (Molecular Probes Cat. # H-2930) RE(EDANS)SQNYPIVQK(DABCYL)R is used to assess activity and Ki's. This peptide is cleaved quantitatively by HIV-1 Pr at the Tyr-Pro bond. The EDANS fluorophore absorbs at 340 nm and emits at 490 nm. The reaction is carried out in a 96 well plate in a total volume of 100 µL and is run for 12 minutes at 37 C under steady-state conditions with 5 µM substrate and 2 nM active dimer enzyme concentration. The literature value Km for this substrate and enzyme is 103+/−8 µM (See Matayoshi, et al., “Novel Fluorogenic Substrates for Assaying Retroviral Proteases by Resonance Energy Transfer,” Science 247, 954 (1990)). The buffer for this reaction is 0.1M sodium acetate pH 4.8, 1M NaCl, 1 mM EDTA, 5 mM dithiothreitol, 10% dimethyl sulfoxide and 1 mg/ml bovine serum albumin. Inhibition curves are fit using the Morrison tight binding equation.

[1] = Ave. Ki (nM), RET assay, Q7S enzyme, Morrison tight binding fit

Cc1ccccc1CNC(=O)[C@H]1N(C(=O)[C@@H](O)[C@H](Cc2ccccc2)NC(=O)CCCN)CSC1(C)C
Ki (Ki, unit inferred): 51 nM

Cc1ccccc1CNC(=O)[C@H]1N(C(=O)[C@@H](O)[C@H](Cc2ccccc2)NC(=O)CN)CSC1(C)C
Ki (Ki, unit inferred): 110 nM

Cc1ccccc1CNC(=O)[C@H]1N(C(=O)[C@@H](O)[C@H](Cc2ccccc2)NC(=O)C(C)(C)CN)CSC1(C)C
Ki (Ki, unit inferred): 18.7 nM

Cc1ccccc1CNC(=O)[C@H]1N(C(=O)[C@@H](O)[C@H](Cc2ccccc2)NC(=O)C(C)CN)CSC1(C)C (some centres unmarked)
Ki (Ki, unit inferred): 158 nM

Cc1ccc(CNC(=O)NC(Cc2ccccc2)C(O)C(=O)N2CSC(C)(C)[C@H]2C(=O)NCc2ccccc2C)c(C)c1 (stereo in doubt) [Example B69, 3-{3-[3-(2,4-Dimethyl-benzyl)-ureido]-2-hydroxy-4-phenyl-butyryl}-5,5-dimethyl-thiazolidine-4-carboxylic acid 2-methyl-benzylamide]
Ki [1]: 7.7 nM

COc1ccccc1CNC(=O)NC(Cc1ccccc1)C(O)C(=O)N1CSC(C)(C)[C@H]1C(=O)NCc1ccccc1C (stereo in doubt) [Example B70, 3-{2-Hydroxy-3-[3-(2-methoxy-benzyl)-ureido]-4-phenyl-butyryl}-5,5-dimethyl-thiazolidine-4-carboxylic acid 2-methyl-benzylamide]
Ki [1]: 21 nM

Cc1ccccc1CNC(=O)[C@H]1N(C(=O)C(O)C(Cc2ccccc2)NC(=O)NCc2ccc(F)cc2F)CSC1(C)C (stereo in doubt) [Example B71, 3-{3-[3-(2,4-Difluoro-benzyl)-ureido]-2-hydroxy-4-phenyl-butyryl}-5,5-dimethyl-thiazolidine-4-carboxylic acid 2-methyl-benzylamide]
Ki [1]: 6.4 nM

Cc1ccccc1CNC(=O)[C@H]1N(C(=O)C(O)C(Cc2ccccc2)NC(=O)NCc2ccccc2Br)CSC1(C)C (stereo in doubt) [Example B72, 3-{3-[3-(2-Bromo-benzyl)ureido]-2-hydroxy-4-phenyl-butyryl}-5,5-dimethyl-thiazolidine-4-carboxylic acid 2-methyl-benzylamide]
Ki [1]: 6.6 nM

Cc1ccccc1CNC(=O)[C@H]1N(C(=O)C(O)C(Cc2ccccc2)NC(=O)NCc2ccc(Br)cc2)CSC1(C)C (stereo in doubt) [Example B73, 3-{3-[3-(4Bromo-benzyl)-ureido]-2-hydroxy-4phenyl-butyryl}-5,5-dimethyl-thiazolidine-4-carboxylic acid 2-methyl-benzylamide]
Ki [1]: 13 nM

Cc1c(O)cccc1C(=O)N[C@@H](Cc1ccccc1)[C@H](O)C(=O)N1CSC(C)(C)[C@H]1C(=O)NCc1nc2ccccc2[nH]1 [Example A60, (R)-3-[(2S,3S)-2-Hydroxy-3-(3-hydroxy-2-methyl-benzoylamino)-4-phenyl-butyryl]-5,5-dimethyl-thiazolidine-4-carboxylic acid (1H-benzoimidazol-2-ylmethyl)-amide]
Ki [1]: 66.6 nM

Cc1ccccc1CNC(=O)[C@H]1N(C(=O)[C@@H](O)[C@H](Cc2ccccc2)NC(=O)NC(C)C)CSC1(C)C [Example B17, 3-[(S)-2-Hydroxy-3-(3-isopropyl-ureide)-4-phenyl-butyryl]-5,5-dimethyl-thiazolidine-4carboxylic acid 2-methyl-benzylamide]
Ki [1]: 4.8 nM

CC1(C)SCN(C(=O)[C@@H](O)[C@H](Cc2ccccc2)NC(=O)NCc2ccccc2Cl)C1C(=O)NCc1ccccc1Cl (stereo partly drawn) [Example B46, 3-{(2S,3S)-3-[3-(2-Chloro-benzyl)-ureido]-2-hydroxy-4-phenyl-butyryl}-5,5-dimethyl-thiazolidine-4-carboxylic acid 2-chloro-benzylamide]
Ki [1]: 93 nM

CC1(C)SCN(C(=O)[C@@H](O)[C@H](Cc2ccccc2)NC(=O)NCc2c(F)cccc2F)[C@@H]1C(=O)NCc1c(F)cccc1F [Example B49]
Ki [1]: 120 nM

C=CCOC(=O)N[C@@H](Cc1ccccc1)[C@H](O)C(=O)N1CSC(C)(C)[C@H]1C(=O)NCc1c(F)cccc1F [Example B50, {(1S,2S)-1-Benzyl-3-[(R)-4-(2,6-difluoro-benzylcarbamoyl)-5,5-dimethyl-thiazolidin-3-yl]-2-hydroxy-3-oxo-propyl}-carbamic acid allyl ester]
Ki [1]: 7.4 nM
